Experimental data reported in the OligoGym collection.
Oligonucleotides are written 5' to 3', each unit as a sugar letter and its base; * is a phosphorothioate linkage, no mark a phosphodiester; rarer units and linkages stand in square brackets, end groups in braces. Plain capitals give the bases only. d = 2'-deoxy (DNA); r = 2'-OH (RNA)

target: UBE2L3; assay: reporter assay of Huesken 2005; conditions: siRNA
Also: test concentration or dose not given here.

In order of rising normalised inhibition (eCFP-eYFP dual reporter):
1. sense rArUrCrGrArCrGrArArArArGrGrGrGrCrArGrGdTdT / antisense rCrCrUrGrCrCrCrCrUrUrUrUrCrGrUrCrGrArUdGdT  32%
2. sense rCrArGrCrCrUrGrArGrCrArCrCrCrGrCrUrUrCdTdT / antisense rGrArArGrCrGrGrGrUrGrCrUrCrArGrGrCrUrGdGdG  37.1%
3. sense rArGrCrArCrCrCrGrCrUrUrCrGrGrGrCrUrGrAdTdT / antisense rUrCrArGrCrCrCrGrArArGrCrGrGrGrUrGrCrUdCdA  37.6%
4. sense rArGrCrCrUrGrArGrCrArCrCrCrGrCrUrUrCrGdTdT / antisense rCrGrArArGrCrGrGrGrUrGrCrUrCrArGrGrCrUdGdG  46.3%
5. sense rCrArArArArCrCrGrArCrCrArArGrUrArArUrCdTdT / antisense rGrArUrUrArCrUrUrGrGrUrCrGrGrUrUrUrUrGdGdT  56.2%
6. sense rArUrUrGrArCrUrUrGrGrCrArArGrGrGrCrUrUdTdT / antisense rArArGrCrCrCrUrUrGrCrCrArArGrUrCrArArUdAdA  58.7%
7. sense rCrCrArArArCrArUrCrGrArCrGrArArArArGrGdTdT / antisense rCrCrUrUrUrUrCrGrUrCrGrArUrGrUrUrUrGrGdGdT  59.4%
8. sense rCrArCrCrCrGrCrUrUrCrGrGrGrCrUrGrArCrCdTdT / antisense rGrGrUrCrArGrCrCrCrGrArArGrCrGrGrGrUrGdCdT  60%
9. sense rCrArGrCrArArCrCrArArArArCrCrGrArCrCrAdTdT / antisense rUrGrGrUrCrGrGrUrUrUrUrGrGrUrUrGrCrUrGdGdC  60%
10. sense rCrCrArArGrUrArArUrCrCrArGrUrCrCrCrUrCdTdT / antisense rGrArGrGrGrArCrUrGrGrArUrUrArCrUrUrGrGdTdC  61.4%
11. sense rCrCrGrUrArArCrArUrCrCrArGrGrUrUrGrArUdTdT / antisense rArUrCrArArCrCrUrGrGrArUrGrUrUrArCrGrGdAdA  61.4%
12. sense rCrCrCrGrCrUrUrCrGrGrGrCrUrGrArCrCrUrAdTdT / antisense rUrArGrGrUrCrArGrCrCrCrGrArArGrCrGrGrGdTdG  62.3%
13. sense rCrCrUrArGrCrUrGrArArGrArArUrArCrUrCrUdTdT / antisense rArGrArGrUrArUrUrCrUrUrCrArGrCrUrArGrGdTdC  63.9%
14. sense rArCrArUrCrGrArCrGrArArArArGrGrGrGrCrAdTdT / antisense rUrGrCrCrCrCrUrUrUrUrCrGrUrCrGrArUrGrUdTdT  64.5%
15. sense rArUrUrUrArArArArCrArArArGrArUrCrUrArUdTdT / antisense rArUrArGrArUrCrUrUrUrGrUrUrUrUrArArArUdGdT  65.5%
16. sense rArGrArUrCrUrArUrCrArCrCrCrArArArCrArUdTdT / antisense rArUrGrUrUrUrGrGrGrUrGrArUrArGrArUrCrUdTdT  73.1%
17. sense rCrArUrArGrCrArCrUrGrGrUrGrArArUrGrArCdTdT / antisense rGrUrCrArUrUrCrArCrCrArGrUrGrCrUrArUrGdAdG  80.9%
18. sense rCrCrUrCrCrArUrArUrGrArUrArArGrGrGrArGdTdT / antisense rCrUrCrCrCrUrUrArUrCrArUrArUrGrGrArGrGdGdT  81.2%
19. sense rCrArArArGrArUrCrUrArUrCrArCrCrCrArArAdTdT / antisense rUrUrUrGrGrGrUrGrArUrArGrArUrCrUrUrUrGdTdT  82.8%
20. sense rCrCrArGrUrArArUrUrArGrUrGrCrCrGrArArAdTdT / antisense rUrUrUrCrGrGrCrArCrUrArArUrUrArCrUrGrGdCdA  82.8%
21. sense rCrCrGrArArGrArUrCrArCrArUrUrUrArArArAdTdT / antisense rUrUrUrUrArArArUrGrUrGrArUrCrUrUrCrGrGdTdG  83.4%
22. sense rCrCrArArArArCrCrGrArCrCrArArGrUrArArUdTdT / antisense rArUrUrArCrUrUrGrGrUrCrGrGrUrUrUrUrGrGdTdT  84.6%
23. sense rCrArArCrCrArArArArCrCrGrArCrCrArArGrUdTdT / antisense rArCrUrUrGrGrUrCrGrGrUrUrUrUrGrGrUrUrGdCdT  87%
24. sense rArCrCrArArGrUrArArUrCrCrArGrUrCrCrCrUdTdT / antisense rArGrGrGrArCrUrGrGrArUrUrArCrUrUrGrGrUdCdG  87.3%
25. sense rCrArGrCrArGrArGrUrArCrCrCrArUrUrCrArAdTdT / antisense rUrUrGrArArUrGrGrGrUrArCrUrCrUrGrCrUrGdGdA  90%
26. sense rCrArGrGrUrUrGrArUrGrArArGrCrUrArArUrUdTdT / antisense rArArUrUrArGrCrUrUrCrArUrCrArArCrCrUrGdGdA  96.7%
